Literature values, collected in patent US20240173233A1, “COSMETIC SACHET FOR REDUCING AGE-RELATED SYMPTOMS IN HUMAN SKIN” (Bloo Pharmapeutica Inc., priority 2022, published 2024).

Columns and labels:
[1] = system: skin fibroblast; conditions: in comparison with other widely used general and mitochondrial-targeting antioxidants
[2] = system: 3D skin model
[3] = system: cultured human skin fibroblasts derived from healthy donors and from patients with progeria
[4] = system: elastin and collagen 2A1; conditions: MB treatment of skin

In the case of CN(C)c1ccc2nc3ccc(=[N+](C)C)cc-3sc2c1.[Cl-] [methylene blue, [7-(dimethylamino)phenothiazine-3-ylidene]-dimethylazanium chloride], the delaying cellular senescence [1] is listed as “more effective”, the “stimulating skin fibroblast proliferation” value [1] is listed as “more effective” and the dermis thickness [2] is listed as “increased skin hydration and dermis thickness”. The skin hydration [2] was “increased skin hydration”, the skin viability [2] was “improved skin viability” and the wound healing [2] was “promoted wound healing”. For the same compound, the “reactive oxygen species (ROS) scavenging efficacy” value [3] was “potent reactive oxygen species (ROS) scavenging efficacy” and the “expression of extracellular matrix proteins” value [4] was “upregulation of elastin and collagen 2A1”.
